In brackets after ≈: the same amount, converted by molar mass.

The assay concerns Helicobacter pylori. Description: Antibacterial activity against Helicobacter pylori assessed as bacterial colonies formation incubated for 24 hrs measured after up to 5 days culturing time by CFU counting analysis. It counts as functional.

By MBC is commonly meant the smallest concentration meeting the test's criterion for killing. As usually defined, the MIC is the lowest concentration that inhibits growth of the organism. Regarding `COc1cc(OC)c2c(c1)[C@@H](CCCCC[C@H]1CCC[C@]3(CC[C@@H](C)O3)O1)OC2=O`, the minimal bactericidal concentration (MBC) came out at 1 µg/mL (≈ 2.39 µM) and the MIC worked out at 2 µg/mL (≈ 4.78 µM).
On the same counts, the results for `COc1cc(OC)c2ccn(CCCCCCCC[C@H]3CCC[C@]4(CC[C@H](C)O4)O3)c2c1` are more than 100 µg/mL and more than 100 µg/mL.
For `COc1cc(OC)c2c(c1)[C@@H](CCCCCCCC[C@H]1CCC[C@]3(CC[C@H](C)O3)O1)OC2=O` the same measures were 3 µg/mL (≈ 6.51 µM) and 3 µg/mL (≈ 6.51 µM).
For `COc1cc(OC)c2c(c1)N(CCCC[C@H]1CCC[C@]3(CC[C@H](C)O3)O1)C(=O)C2` the same measures were 12.5 µg/mL (≈ 31 µM) and 12.5 µg/mL (≈ 31 µM).
For `COc1cc(OC)c2c(c1)N(CCCCCCCC[C@H]1CCC[C@]3(CC[C@H](C)O3)O1)C(=O)C2`, the minimum bactericidal concentration (MBC) was found to be 16 µg/mL (≈ 34.8 µM) and the MIC came to 16 µg/mL (≈ 34.8 µM).
In the case of `COc1cc(OC)c2ccn(CCCC[C@H]3CCC[C@]4(CC[C@H](C)O4)O3)c2c1`, the minimal bactericidal concentration (MBC) was found to be 3 µg/mL (≈ 7.74 µM) and the minimal inhibitory concentration (MIC) worked out at 3 µg/mL (≈ 7.74 µM).
As to `COc1cc(OC)c2c(c1)[C@@H](CCCC[C@H]1CCC[C@]3(CC[C@H](C)O3)O1)OC2=O`, the MBC was 12.5 µg/mL (≈ 30.9 µM) and the minimal inhibitory concentration (MIC) was 12.5 µg/mL (≈ 30.9 µM).
Turning to `COc1cc(OC)c2ccn(CCCCC[C@H]3CCC[C@]4(CC[C@H](C)O4)O3)c2c1`, the minimal bactericidal concentration (MBC) is 8.3 µg/mL (≈ 20.7 µM) and the MIC stood at 8.3 µg/mL (≈ 20.7 µM).
Take `COc1cc(OC)c2c(c1)N(CCCCC[C@H]1CCC[C@]3(CC[C@H](C)O3)O1)C(=O)C2`: the minimal bactericidal concentration (MBC) came out at 12.5 µg/mL (≈ 29.9 µM) and the minimum inhibitory concentration (MIC) was 12.5 µg/mL (≈ 29.9 µM).

(Values after ChEMBL document CHEMBL3217556, “Synthesis and anti-Helicobacter pylori activity of analogues of spirolaxine methyl ether” (2012).)
